Where two headings read alike, the source gives them in different places.
Assays:
Test in all cases: Test A preemergence
Assay type in all cases: in vivo
[1] = test system: barnyardgrass (Echinochloa crus-galli); details: Echinochloa crus-galli, pre-emergence, 240 h; for pest or weed control at 125 g/ha: 125 g ai/ha; for pest or weed control at 500 g/ha: 500 g ai/ha
In short: (§1)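 Compounds were formulated in a non-phytotoxic solvent mixture with surfactant and applied as a preemergence directed soil spray after seeding, or sprayed postemergence over plants 2 to 10 cm tall at the one- to two-leaf stage. Evaluation after about 10 d compared treated with untreated controls, using a scale from 0 (no effect) to 100 (complete control).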

[2] = test system: ryegrass, Italian (Italian ryegrass, Lolium multiflorum); details: Lolium multiflorum, pre-emergence, 240 h; for pest or weed control at 125 g/ha: 125 g ai/ha; for pest or weed control at 500 g/ha: 500 g ai/ha
In short: as §1

Kochia (Kochia scoparia) = details: Bassia scoparia, pre-emergence, 240 h; for pest or weed control at 125 g/ha: 125 g ai/ha; for pest or weed control at 500 g/ha: 500 g ai/ha
In short: as §1

[3] = test system: giant foxtail (Setaria faberii); details: Setaria faberi, pre-emergence, 240 h; for pest or weed control at 125 g/ha: 125 g ai/ha; for pest or weed control at 500 g/ha: 500 g ai/ha
In short: as §1

[4] = test system: ragweed (common ragweed, Ambrosia elatior); details: Ambrosia artemisiifolia, pre-emergence, 240 h; for pest or weed control at 125 g/ha: 125 g ai/ha; for pest or weed control at 500 g/ha: 500 g ai/ha
In short: as §1

[5] = Preemergence, visual injury rating after approximately 10 d, read-out: Barnyardgrass plant response rating (0 to 100 scale, 0 is no effect, 100 is complete control)
[6] = preemergence, visual injury rating about 10 d after treatment, 0 to 100 scale (0 no effect, 100 complete control), read-out: Barnyardgrass plant response rating
[7] = Preemergence, visual injury rating after approximately 10 d, read-out: Ryegrass, Italian plant response rating (0 to 100 scale, 0 is no effect, 100 is complete control)
[8] = preemergence, visual injury rating about 10 d after treatment, 0 to 100 scale (0 no effect, 100 complete control), read-out: Ryegrass, Italian plant response rating
[9] = Preemergence, visual injury rating after approximately 10 d, read-out: Kochia plant response rating (0 to 100 scale, 0 is no effect, 100 is complete control)
[10] = preemergence, visual injury rating about 10 d after treatment, 0 to 100 scale (0 no effect, 100 complete control), read-out: Kochia plant response rating
[11] = Preemergence, visual injury rating after approximately 10 d, read-out: Foxtail, Giant plant response rating (0 to 100 scale, 0 is no effect, 100 is complete control)
[12] = preemergence, visual injury rating about 10 d after treatment, 0 to 100 scale (0 no effect, 100 complete control), read-out: Foxtail, Giant plant response rating
[13] = Preemergence, visual injury rating after approximately 10 d, read-out: Ragweed plant response rating (0 to 100 scale, 0 is no effect, 100 is complete control)
[14] = preemergence, visual injury rating about 10 d after treatment, 0 to 100 scale (0 no effect, 100 complete control), read-out: Ragweed plant response rating
[15] = preemergence, 0 to 100 scale where 0 is no effect and 100 is complete control, read-out: Barnyardgrass plant response rating
[16] = Preemergence, visual injury vs untreated controls after approximately 10 d, read-out: Barnyardgrass plant response rating (0 to 100 scale where 0 is no effect and 100 is complete control)
[17] = preemergence, 0 to 100 scale where 0 is no effect and 100 is complete control, read-out: Ryegrass, Italian plant response rating
[18] = Preemergence, visual injury vs untreated controls after approximately 10 d, read-out: Ryegrass, Italian plant response rating (0 to 100 scale where 0 is no effect and 100 is complete control)
[19] = preemergence, 0 to 100 scale where 0 is no effect and 100 is complete control, read-out: Kochia plant response rating
[20] = Preemergence, visual injury vs untreated controls after approximately 10 d, read-out: Kochia plant response rating (0 to 100 scale where 0 is no effect and 100 is complete control)
[21] = preemergence, 0 to 100 scale where 0 is no effect and 100 is complete control, read-out: Foxtail, Giant plant response rating
[22] = Preemergence, visual injury vs untreated controls after approximately 10 d, read-out: Foxtail, Giant plant response rating (0 to 100 scale where 0 is no effect and 100 is complete control)
[23] = preemergence, 0 to 100 scale where 0 is no effect and 100 is complete control, read-out: Ragweed plant response rating
[24] = Preemergence, visual injury vs untreated controls after approximately 10 d, read-out: Ragweed plant response rating (0 to 100 scale where 0 is no effect and 100 is complete control)
[25] = preemergence, 0 to 100 scale where 0 is no effect and 100 is complete control, approx. 10 d, read-out: Barnyardgrass plant response rating
[26] = preemergence, 0 to 100 scale where 0 is no effect and 100 is complete control, approx. 10 d, read-out: Ryegrass, Italian plant response rating
[27] = preemergence, 0 to 100 scale where 0 is no effect and 100 is complete control, approx. 10 d, read-out: Kochia plant response rating
[28] = preemergence, 0 to 100 scale where 0 is no effect and 100 is complete control, approx. 10 d, read-out: Foxtail, Giant plant response rating
[29] = preemergence, 0 to 100 scale where 0 is no effect and 100 is complete control, approx. 10 d, read-out: Ragweed plant response rating

| SMILES | pest or weed control at 125 g/ha [1, 5] | pest or weed control at 500 g/ha [1, 6] | pest or weed control at 125 g/ha [2, 7] | pest or weed control at 500 g/ha [2, 8] | pest or weed control at 125 g/ha (Kochia (Kochia scoparia); [9]) | pest or weed control at 500 g/ha (Kochia (Kochia scoparia); [10]) | pest or weed control at 125 g/ha [3, 11] | pest or weed control at 500 g/ha [3, 12] | pest or weed control at 125 g/ha [4, 13] | pest or weed control at 500 g/ha [4, 14] | pest or weed control at 125 g/ha [1, 15] | pest or weed control at 500 g/ha [1, 16] | pest or weed control at 125 g/ha [2, 17] | pest or weed control at 500 g/ha [2, 18] | pest or weed control at 125 g/ha (Kochia (Kochia scoparia); [19]) | pest or weed control at 500 g/ha (Kochia (Kochia scoparia); [20]) | pest or weed control at 125 g/ha [3, 21] | pest or weed control at 500 g/ha [3, 22] | pest or weed control at 125 g/ha [4, 23] | pest or weed control at 500 g/ha [4, 24] | also measured |
| --- | --- | --- | --- | --- | --- | --- | --- | --- | --- | --- | --- | --- | --- | --- | --- | --- | --- | --- | --- | --- | --- |
| CN1C[C@H](c2cc(F)cc(Cl)c2)[C@@H](C(=O)Nc2ccccc2S(C)(=O)=O)C1=O [Compound 979] | 90% | 90% | 50% | 60% | 50% | 90% | 90% | 100% | 50% | 90% | – | – | – | – | – | – | – | – | – | – | – |
| Cc1cc([C@H]2CN(C)C(=O)[C@@H]2C(=O)Nc2ccccc2S(C)(=O)=O)ccc1Cl [Compound 944] | 90% | 90% | 0% | 0% | 0% | 70% | 90% | 90% | 50% | 50% | – | – | – | – | – | – | – | – | – | – | – |
| CN1C[C@H](c2cc(F)c(F)c(F)c2)[C@@H](C(=O)Nc2ccccc2S(C)(=O)=O)C1=O [Compound 880] | – | – | – | – | – | – | – | – | – | – | 90% | 100% | 20% | 70% | 70% | 90% | 100% | 100% | 50% | 80% | – |
| CC(C)COc1cccc([C@H]2CNC(=O)[C@@H]2C(=O)Nc2ccc(F)cc2F)c1 [Compound 966] | 80% | 90% | 20% | 60% | 30% | 30% | 80% | 90% | 0% | 0% | – | – | – | – | – | – | – | – | – | – | – |
| CSc1ccccc1NC(=O)[C@H]1C(=O)NC[C@@H]1c1cc(F)c(F)c(F)c1 [Compound 1124] | – | – | – | – | – | – | – | – | – | – | – | – | – | – | – | – | – | – | – | – | pest or weed control at 125 g/ha [1, 25]: 60%; pest or weed control at 500 g/ha [1, 15]: 90%; pest or weed control at 125 g/ha [2, 26]: 0%; pest or weed control at 500 g/ha [2, 17]: 30%; pest or weed control at 125 g/ha (Kochia (Kochia scoparia); [27]): 70%; pest or weed control at 500 g/ha (Kochia (Kochia scoparia); [19]): 90%; pest or weed control at 125 g/ha [3, 28]: 90%; pest or weed control at 500 g/ha [3, 21]: 90%; pest or weed control at 125 g/ha [4, 29]: 0%; pest or weed control at 500 g/ha [4, 23]: 60% |
| O=C1NC[C@H](c2cc(F)c(C(F)(F)F)c(F)c2)[C@H]1C(=O)Nc1ccccc1F [Compound 837] | – | – | – | – | – | – | – | – | – | – | 90% | 90% | 50% | 70% | 90% | 90% | 90% | 90% | 70% | 70% | – |
| O=C1NC[C@H](c2cccc(C(F)(F)F)c2)[C@H]1C(=O)Nc1cccc2c1OC(F)(F)O2 [Compound 827] | – | – | – | – | – | – | – | – | – | – | 90% | 90% | 30% | 70% | 30% | 60% | 90% | 90% | 0% | 20% | – |
| COc1cc([C@H]2CN(C)C(=O)[C@@H]2C(=O)Nc2ccccc2F)cc(C(F)(F)F)c1 [Compound 855] | – | – | – | – | – | – | – | – | – | – | 90% | 100% | 0% | 30% | 20% | 30% | 90% | 90% | 0% | 0% | – |
| CN1C[C@H](c2ccc(C(F)(F)F)cc2)[C@](F)(C(=O)Nc2cccc(F)c2F)C1=O (racemic) [Compound 1152] | – | – | – | – | – | – | – | – | – | – | – | – | – | – | – | – | – | – | – | – | pest or weed control at 125 g/ha [1, 25]: 20%; pest or weed control at 500 g/ha [1, 15]: 90%; pest or weed control at 125 g/ha [2, 26]: 0%; pest or weed control at 500 g/ha [2, 17]: 20%; pest or weed control at 125 g/ha (Kochia (Kochia scoparia); [27]): 0%; pest or weed control at 500 g/ha (Kochia (Kochia scoparia); [19]): 0%; pest or weed control at 125 g/ha [3, 28]: 70%; pest or weed control at 500 g/ha [3, 21]: 90%; pest or weed control at 125 g/ha [4, 29]: 0%; pest or weed control at 500 g/ha [4, 23]: 0% |
| CN1C[C@H](c2csc(C(F)(F)F)c2)[C@@H](C(=O)Nc2cccc(F)c2F)C1=O [Compound 959] | 90% | 100% | 20% | 60% | 70% | 90% | 90% | 100% | 70% | 70% | – | – | – | – | – | – | – | – | – | – | – |
| Cc1c(F)ccc([C@H]2CN(C)C(=O)[C@@H]2C(=O)Nc2cccc(F)c2F)c1F [Compound 834] | – | – | – | – | – | – | – | – | – | – | 90% | 90% | 70% | 80% | 80% | 90% | 90% | 100% | 0% | 20% | – |

— US12077503B2, “Substituted cyclic amides and their use as herbicides” (FMC CORPORATION, priority 2015, dated 2024)
